{"source": "ChEMBL document CHEMBL3526057", "about": "(Drug Metab Dispos, 2011)", "type_in_all_cases": "ADME", "details_in_all_cases": "recombinant enzyme, 1 h", "key": {"Cytochrome P450 2C19 [1]": {"biological_target": "T1, Cytochrome P450 2C19 (Homo sapiens, UniProt P33261, E92D)", "assay": "Activity of human recombinant CYP2C19 E92D mutant expressed in Saccharomyces cerevisiae BJ5457 assessed as omeprazole 5'-hydroxylation per pmol protein at 5 uM after 60 mins"}, "Cytochrome P450 2C19 [2]": {"biological_target": "T2, Cytochrome P450 2C19 (Homo sapiens, UniProt P33261, D360N)", "assay": "Activity of human recombinant CYP2C19 D360N mutant expressed in Saccharomyces cerevisiae BJ5457 assessed asomeprazole 5'-hydroxylation per pmol protein after 60 mins"}, "Cytochrome P450 2C19 [3]": {"biological_target": "Cytochrome P450 2C19 (Homo sapiens, UniProt P33261, I19L)", "assay": "Activity of human recombinant CYP2C19.15 mutant expressed in Saccharomyces cerevisiae BJ5457 assessed asomeprazole 5'-hydroxylation per pmol protein after 60 mins"}, "Cytochrome P450 2C19 [4]": {"biological_target": "T3, Cytochrome P450 2C19 (Homo sapiens, UniProt P33261, W212C)", "assay": "Activity of human recombinant CYP2C19 W212C mutant expressed in Saccharomyces cerevisiae BJ5457 assessed asomeprazole 5'-hydroxylation per pmol protein after 60 mins"}, "Cytochrome P450 2C19 [5]": {"biological_target": "T2, Cytochrome P450 2C19", "assay": "Activity of human recombinant CYP2C19 D360N mutant expressed in Saccharomyces cerevisiae BJ5457 assessed asomeprazole 5'-hydroxylation after 60 mins"}, "Cytochrome P450 2C19 [6]": {"biological_target": "T4, Cytochrome P450 2C19 (Homo sapiens, UniProt P33261, P227L)", "assay": "Activity of human recombinant CYP2C19.10 mutant expressed in Saccharomyces cerevisiae BJ5457 assessed as omeprazole 5'-hydroxylation per pmol protein at 100 uM after 60 mins"}, "Cytochrome P450 2C19 [7]": {"biological_target": "T5, Cytochrome P450 2C19 (Homo sapiens, UniProt P33261, R329H)", "assay": "Activity of human recombinant CYP2C19.18 mutant expressed in Saccharomyces cerevisiae BJ5457 assessed asomeprazole 5'-hydroxylation after 60 mins"}, "Cytochrome P450 2C19 [8]": {"biological_target": "Cytochrome P450 2C19 (Homo sapiens, UniProt P33261, L17P)", "assay": "Activity of human recombinant CYP2C19.14 mutant expressed in Saccharomyces cerevisiae BJ5457 assessed asomeprazole 5'-hydroxylation per pmol protein after 60 mins"}, "Cytochrome P450 2C19 [9]": {"biological_target": "T3, Cytochrome P450 2C19", "assay": "Activity of human recombinant CYP2C19 W212C mutant expressed in Saccharomyces cerevisiae BJ5457 assessed as omeprazole 5'-hydroxylation per pmol protein at 5 uM after 60 mins"}, "Cytochrome P450 2C19 [10]": {"biological_target": "Cytochrome P450 2C19 (Homo sapiens, UniProt P33261, S51G)", "assay": "Activity of human recombinant CYP2C19.19 mutant expressed in Saccharomyces cerevisiae BJ5457 assessed asomeprazole 5'-hydroxylation per pmol protein after 60 mins"}, "Cytochrome P450 2C19 [11]": {"biological_target": "T5, Cytochrome P450 2C19", "assay": "Activity of human recombinant CYP2C19.18 mutant expressed in Saccharomyces cerevisiae BJ5457 assessed as omeprazole 5'-hydroxylation per pmol protein at 100 uM after 60 mins"}, "Cytochrome P450 2C19 [12]": {"biological_target": "T6, Cytochrome P450 2C19 (Homo sapiens, UniProt P33261, R144H)", "assay": "Activity of human recombinant CYP2C19.9 mutant expressed in Saccharomyces cerevisiae BJ5457 assessed asomeprazole 5'-hydroxylation per pmol protein after 60 mins"}, "Cytochrome P450 2C19 [13]": {"biological_target": "T7, Cytochrome P450 2C19 (Homo sapiens, UniProt P33261, A161P)", "assay": "Activity of human recombinant CYP2C19 A161P mutant expressed in Saccharomyces cerevisiae BJ5457 assessed as omeprazole 5'-hydroxylation per pmol protein at 5 uM after 60 mins"}, "Cytochrome P450 2C19 [14]": {"biological_target": "T8, Cytochrome P450 2C19 (Homo sapiens, UniProt P33261, M74T)", "assay": "Activity of human recombinant CYP2C19 M74T mutant expressed in Saccharomyces cerevisiae BJ5457 assessed as intrinisic clearance foromeprazole 5'-hydroxylation per pmol protein after 60 mins"}, "Cytochrome P450 2C19 [15]": {"biological_target": "T9, Cytochrome P450 2C19 (Homo sapiens, UniProt P33261, R410C)", "assay": "Activity of human recombinant CYP2C19.13 mutant expressed in Saccharomyces cerevisiae BJ5457 assessed asomeprazole 5'-hydroxylation after 60 mins"}, "Cytochrome P450 2C19 [16]": {"biological_target": "Cytochrome P450 2C19 (Homo sapiens, UniProt P33261, V331I/R442C)", "assay": "Activity of human recombinant CYP2C19.16 mutant expressed in Saccharomyces cerevisiae BJ5457 assessed as omeprazole 5'-hydroxylation per pmol protein at 100 uM after 60 mins"}, "Cytochrome P450 2C19 [17]": {"biological_target": "T10, Cytochrome P450 2C19 (Homo sapiens, UniProt P33261, E122A)", "assay": "Activity of human recombinant CYP2C19 E122A mutant expressed in Saccharomyces cerevisiae BJ5457 assessed as omeprazole 5'-hydroxylation per pmol protein at 5 uM after 60 mins"}, "Cytochrome P450 2C19 [18]": {"biological_target": "T3, Cytochrome P450 2C19", "assay": "Activity of human recombinant CYP2C19 W212C mutant expressed in Saccharomyces cerevisiae BJ5457 assessed as intrinisic clearance foromeprazole 5'-hydroxylation per pmol protein after 60 mins"}, "Cytochrome P450 2C19 [19]": {"biological_target": "T9, Cytochrome P450 2C19", "assay": "Activity of human recombinant CYP2C19.13 mutant expressed in Saccharomyces cerevisiae BJ5457 assessed as omeprazole 5'-hydroxylation per pmol protein at 5 uM after 60 mins"}, "Cytochrome P450 2C19 [20]": {"biological_target": "T4, Cytochrome P450 2C19", "assay": "Activity of human recombinant CYP2C19.10 mutant expressed in Saccharomyces cerevisiae BJ5457 assessed as omeprazole 5'-hydroxylation per pmol protein at 5 uM after 60 mins"}, "Cytochrome P450 2C19 [21]": {"biological_target": "T1, Cytochrome P450 2C19", "assay": "Activity of human recombinant CYP2C19 E92D mutant expressed in Saccharomyces cerevisiae BJ5457 assessed asomeprazole 5'-hydroxylation per pmol protein after 60 mins"}, "Cytochrome P450 2C19 [22]": {"biological_target": "T11, Cytochrome P450 2C19 (Homo sapiens, UniProt P33261)", "assay": "Activity of human recombinant CYP2C19.1A mutant expressed in Saccharomyces cerevisiae BJ5457 assessed as omeprazole 5'-hydroxylation per pmol protein at 5 uM after 60 mins"}, "Cytochrome P450 2C19 [23]": {"biological_target": "T11, Cytochrome P450 2C19", "assay": "Activity of human recombinant CYP2C19.8 mutant expressed in Saccharomyces cerevisiae BJ5457 assessed as omeprazole 5'-hydroxylation per pmol protein at 5 uM after 60 mins"}, "Cytochrome P450 2C19 [24]": {"biological_target": "Cytochrome P450 2C19 (Homo sapiens, UniProt P33261, R433W)", "assay": "Activity of human recombinant CYP2C19.5B mutant expressed in Saccharomyces cerevisiae BJ5457 assessed as omeprazole 5'-hydroxylation per pmol protein at 5 uM after 60 mins"}, "Cytochrome P450 2C19 [25]": {"biological_target": "T5, Cytochrome P450 2C19", "assay": "Activity of human recombinant CYP2C19.18 mutant expressed in Saccharomyces cerevisiae BJ5457 assessed as intrinisic clearance foromeprazole 5'-hydroxylation per pmol protein after 60 mins"}, "Cytochrome P450 2C19 [26]": {"biological_target": "T8, Cytochrome P450 2C19", "assay": "Activity of human recombinant CYP2C19 M74T mutant expressed in Saccharomyces cerevisiae BJ5457 assessed as omeprazole 5'-hydroxylation per pmol protein at 100 uM after 60 mins"}, "Cytochrome P450 2C19 [27]": {"biological_target": "T7, Cytochrome P450 2C19", "assay": "Activity of human recombinant CYP2C19 A161P mutant expressed in Saccharomyces cerevisiae BJ5457 assessed asomeprazole 5'-hydroxylation after 60 mins"}, "Cytochrome P450 2C19 [28]": {"biological_target": "T10, Cytochrome P450 2C19", "assay": "Activity of human recombinant CYP2C19 E122A mutant expressed in Saccharomyces cerevisiae BJ5457 assessed as intrinisic clearance foromeprazole 5'-hydroxylation per pmol protein after 60 mins"}, "Cytochrome P450 2C19 [29]": {"biological_target": "T6, Cytochrome P450 2C19", "assay": "Activity of human recombinant CYP2C19.9 mutant expressed in Saccharomyces cerevisiae BJ5457 assessed as intrinisic clearance foromeprazole 5'-hydroxylation per pmol protein after 60 mins"}, "Cytochrome P450 2C19 [30]": {"biological_target": "T3, Cytochrome P450 2C19", "assay": "Activity of human recombinant CYP2C19 W212C mutant expressed in Saccharomyces cerevisiae BJ5457 assessed asomeprazole 5'-hydroxylation after 60 mins"}, "Cytochrome P450 2C19 [31]": {"biological_target": "T4, Cytochrome P450 2C19", "assay": "Activity of human recombinant CYP2C19.10 mutant expressed in Saccharomyces cerevisiae BJ5457 assessed as intrinisic clearance foromeprazole 5'-hydroxylation per pmol protein after 60 mins"}}, "data": [{"smiles": "COc1ccc2[nH]c([S+]([O-])Cc3ncc(C)c(OC)c3C)nc2c1", "note": "(stereo unspecified) [OMEPRAZOLE]", "values": [{"measurement": "Drug metabolism", "setting": "Cytochrome P450 2C19 [1]", "value": 2.95, "unit": "pmol/min"}, {"measurement": "Vmax", "setting": "Cytochrome P450 2C19 [2]", "value": 4.11, "unit": "pmol/min"}, {"measurement": "Vmax", "setting": "Cytochrome P450 2C19 [3]", "value": 8.18, "unit": "pmol/min"}, {"measurement": "Vmax", "setting": "Cytochrome P450 2C19 [4]", "value": 2.04, "unit": "pmol/min"}, {"measurement": "Km", "setting": "Cytochrome P450 2C19 [5]", "value": 7.81, "unit": "µM"}, {"measurement": "Drug metabolism", "setting": "Cytochrome P450 2C19 [6]", "value": 5, "unit": "pmol/min"}, {"measurement": "Km", "setting": "Cytochrome P450 2C19 [7]", "value": 6.02, "unit": "µM"}, {"measurement": "Vmax", "setting": "Cytochrome P450 2C19 [8]", "value": 8.05, "unit": "pmol/min"}, {"measurement": "Drug metabolism", "setting": "Cytochrome P450 2C19 [9]", "value": 0.58, "unit": "pmol/min"}, {"measurement": "Vmax", "setting": "Cytochrome P450 2C19 [10]", "value": 9.59, "unit": "pmol/min"}, {"measurement": "Drug metabolism", "setting": "Cytochrome P450 2C19 [11]", "value": 4.83, "unit": "pmol/min"}, {"measurement": "Vmax", "setting": "Cytochrome P450 2C19 [12]", "value": 6.21, "unit": "pmol/min"}, {"measurement": "Drug metabolism", "setting": "Cytochrome P450 2C19 [13]", "value": 0.65, "unit": "pmol/min"}, {"measurement": "CL", "setting": "Cytochrome P450 2C19 [14]", "value": 1.11, "unit": "µL/min"}, {"measurement": "Km", "setting": "Cytochrome P450 2C19 [15]", "value": 4.87, "unit": "µM"}, {"measurement": "Drug metabolism", "setting": "Cytochrome P450 2C19 [16]", "value": 1.41, "unit": "pmol/min"}, {"measurement": "Drug metabolism", "setting": "Cytochrome P450 2C19 [17]", "value": 1.58, "unit": "pmol/min"}, {"measurement": "CL", "setting": "Cytochrome P450 2C19 [18]", "value": 0.18, "unit": "µL/min"}, {"measurement": "Drug metabolism", "setting": "Cytochrome P450 2C19 [19]", "value": 3.03, "unit": "pmol/min"}, {"measurement": "Drug metabolism", "setting": "Cytochrome P450 2C19 [20]", "value": 1.94, "unit": "pmol/min"}, {"measurement": "Vmax", "setting": "Cytochrome P450 2C19 [21]", "value": 6.93, "unit": "pmol/min"}, {"measurement": "Drug metabolism", "setting": "Cytochrome P450 2C19 [22]", "value": 2.75, "unit": "pmol/min"}, {"measurement": "Drug metabolism", "setting": "Cytochrome P450 2C19 [23]", "value": "metabolite_not_detected"}, {"measurement": "Drug metabolism", "setting": "Cytochrome P450 2C19 [24]", "value": "metabolite_not_detected"}, {"measurement": "CL", "setting": "Cytochrome P450 2C19 [25]", "value": 1.3, "unit": "µL/min"}, {"measurement": "Drug metabolism", "setting": "Cytochrome P450 2C19 [26]", "value": 4.27, "unit": "pmol/min"}, {"measurement": "Km", "setting": "Cytochrome P450 2C19 [27]", "value": 6.68, "unit": "µM"}, {"measurement": "CL", "setting": "Cytochrome P450 2C19 [28]", "value": 0.4, "unit": "µL/min"}, {"measurement": "CL", "setting": "Cytochrome P450 2C19 [29]", "value": 0.62, "unit": "µL/min"}, {"measurement": "Km", "setting": "Cytochrome P450 2C19 [30]", "value": 11.2, "unit": "µM"}, {"measurement": "CL", "setting": "Cytochrome P450 2C19 [31]", "value": 0.5, "unit": "µL/min"}]}]}
